Test results: patent US9140692B1, “Methods of identifying glycopeptides recognized by disease-associated auto-antibodies” (Glycozym, Inc., priority 2010, dated 2015)
“Also recorded” adds a separate entry of the source.

Key:
[1] = tested on: human IgG antibodies from cancer patients; test: Microarray screening of the larger GalNAc O-glycopeptide library (Table III) with human cancer and control sera; assay type: binding; conditions: for reactivity with IgG from newly diagnosed cancer patients compared to normal control sera: FIG. 6, sera at 1:20 dilution, anti-human-IgG Cy3; for reactivity with human IgG from cancer patients compared to controls: resynthesized glycopeptides printed at 50 μM, cancer sera and 145 control normal sera
Text: FIG. 6A: glycopeptides 889 (SEQ ID NO: 134), 275a (SEQ ID NO: 86), and 585 (SEQ ID NO: 109). FIG. 6B: glycopeptides 893 (SEQ ID NO: 135), 931-C3 (SEQ ID NO: 146), and 852-C3 (SEQ ID NO: 145). FIG. 6C: gycopeptides 873 (SEQ ID NO: 132) and 690 (SEQ ID NO: 116). The following human sera were used for FIGS. 6A and 6B: 32 ovarian cancer (O), 38 breast cancer (B), 54 colon cancer (C), 17 lung cancer (L), as well as 145 normal sera (N) (Asterand Corp). The following sera were used for FIG. 6C: 32 ovarian cancer (O), 38 breast cancer […], 54 colon cancer (C), 42 lung cancer (L), 52 pancreactic cancer (Pn), 35 prostatic cancer (Pr), 8 inflammatory disease (In), 8 benign controls (Bn), and 145 healthy controls (N). Sera were screened at 1:20 dilution. Anti-human-IgG conjugated to Cy3 was used as the secondary detection unit and slides were scanned with a GenePix 4200AL Microarray Scanner.
A larger library of GalNAc O-glycopeptides designed with GalNAc linked to serine or threonine at position 12 in 20-mer peptides was produced as described in Example 1. Peptides were selected among cell membrane and secreted human proteins that contain serine and threonine residues that are predicted to be O-glycosylated by the NetOGlyc algorithm (Julenius et al. 2005). A total of 960 GalNAc glycopeptides were synthesized at 0.5 mg scale (Sigma) and printed on microarray hydrogel slides (Schott Nexterion) as described in Example 1. Slides were reacted with human cancer sera (ovarian, breast, colon, lung, pancreas, prostate, 235 total sera) and control sera (145 healthy, 20 inflammatory, 20 benign tumor). Glycopeptides preferentially reactive with human IgG antibodies from cancer patients compared to controls were selected for resynthesis at 5 mg scale with amidated C-terminus (New England Peptide (Gardner, Mass.) (Table III). Resynthesized glycopeptides were reprinted on microarray slides at 50 μM and reacted with human cancer sera (Total 286 sera: 32 ovarian cancer (O), 38 breast cancer (B), 54 colon cancer (C), 17 lung cancer (L), and 145 age and sex matched control normal sera as described in Example 1. Table III lists glycopeptides exclusively or preferentially reactive with human IgG from cancer patients compared to controls and examples of reactivities are shown in FIG. 6.
Since IgG antibodies reactive with glycopeptides epitopes recognize both the peptide sequence in close proximity to the O-glycan (i.e., one to five or even eighth residues N- and C-terminal of the O-glycan) as well as the O-glycan structure, it is clear that different glycoforms of one glycopeptide may be recognized by different IgG antibodies and these antibodies may be found in different cancer patients. In this Example, GalNAc-glycopeptides from MUC1 and MUC4 were also produced as the core 3 GlcNAcβ1-3GalNAcα1-O-Ser/Thr glycoform with a recombinant core 3 synthase as described in Example 1.

[2] = tested on: human IgG antibodies (cancer-associated auto-antibodies in serum); test: Glycopeptide microarray screening of the 96 paired peptide/GalNAc-glycopeptide library with human sera; assay type: binding; conditions: serum of newly diagnosed prostate cancer patient #762, 1:25 dilution, labeled anti-human IgG; FIG. 2
Text: A panel of human sera was obtained from CHTN (Cooperative Human Tissue Network) and Asterand Inc., under the guidelines of approved agreements by the providers. Sera obtained were from control individuals (“normal”) (n=31) and from newly diagnosed cancer patients (n=147) with pancreatic, breast, colon, lung, prostate or ovary primary cancers. Briefly, for cancer sera, all blood samples were obtained on or near date of diagnosis, and serum was processed immediately, flash frozen and stored at −70° C. until shipment. Serum samples received from the providers as frozen aliquots generally of 1-2 mL were brought to room temperature, vortexed and distributed into 20-100 μL aliquots in closeable Eppendorf tubes (vWR) (pre-labeled), and immediately frozen and stored at −70° C. until use.
Glycopeptides (20-mers with and without a single GalNAc residue at position 12) and control structures (corresponding unglycosylated peptides) were printed on Corning (Corning, N.Y.), Scienion (Germany) or Schott Nexterion® Slide H or Schott Nexterion® Slide H MPX 16 (Schott AG, Mainz, Germany) by JPT (Germany). Triplicates or quadruplicates of all compounds were printed at optimal concentrations (1-50 μM) or 50× excess relative to scale of synthesis for spot-synthesized glycopeptides printed without purification. After printing, slides were incubated for 1 hour (h) in a humidified hybridization chamber with 70-100% relative humidity and stored until use at 4° C. Unspotted slide areas were blocked for 1 h with 25 mM ethanolamine in 100 mM sodium borate pH 8.5. If an enzyme step was needed either to increase sites of GaLNac attachments in peptides or extend O-glycans to T, STn, core 3 or other structures, addition of the enzyme reaction mixture in 25-35 μL was made in appropriate wells and the slide incubated at 37° C. for 1 h, after which it was washed in PBS/0.05% Tween and then PBS, and then spun dry.
Human sera (usually diluted 1:25), monoclonal antibodies, lectins and the like were added in 25 μL and the slide left at room temperature for 2 h in a moist, humid chamber after which it was washed as above and spun dry (if no superstructure). Secondary antibodies were added at appropriate concentrations (for human sera, usually 1:1500 for anti-human IgG with a Cy3 chromophore). In some cases, for some controls, lectin-Cy3 was used directly as final step. The final step was washing as above, with a brief de-ionized water wash and the slide spun dry for scanning Analysis was made on a GenePix 4200AL Scanner at PMT 400 and power mode 10-50. Data were analyzed and plotted using Microsoft Excel.
Glycopeptides (20-mers with and without a single GalNAc residue at position 12) were printed in triplicates (horizontal) on Scineon 16-well slides by JPT (Germany) and bound human IgG antibodies detected by a labeled secondary anti-human IgG antibody. FIG. 2 illustrates examples of reactivities of serum (1:25 dilution) from a newly diagnosed prostate cancer patient (#762 in Panel A) and a normal control serum from a healthy individual (#174 in Panel B) on the library of 96 paired peptides/GalNAc-glycopeptides as designated in Table II. Candidate cancer-associated IgG antibodies identified in the cancer serum directed to GalNAc glycopeptide epitopes are indicated by open circles labeled 20/21, 62/63, and 86/87 for the paired peptide and GalNAc glycopeptides, respectively. […]
FIG. 4 illustrates results of screening 147 cancer sera and 31 normal sera on the glycopeptide pair #62/63. FIG. 5 illustrates results of screening 147 cancer sera and 31 normal sera on the glycopeptide pair #86/87.

Substance | reactivity with IgG from newly diagnosed cancer patients compared to normal control sera [1] | reactivity with human IgG from cancer patients compared to controls [1] | reactivity of serum IgG antibodies with printed peptide/GalNAc-glycopeptide [2]
H2N-HDVETQFNQYKTEAASRYNL-amide (H-HDVETQFNQYKTEAASRYNL-NH2; also: O-GalNAc glycopeptide, sites not given here) [Peptide 889] | reactive with IgG from newly diagnosed cancer patients | – | –
H2N-VPVTRPALGSTT[GlcNAc] PPAHDVTS-amide (H-VPVTRPALGSTTPPAHDVTS-NH2; not fully specified (residue 12)) [Peptide 852-C3] | reactive with IgG from newly diagnosed cancer patients | exclusively recognized by IgG antibodies in sera from cancer patients | –
H2N-ASRYNLTISDVSVSDVPFPF-amide (H-ASRYNLTISDVSVSDVPFPF-NH2; also: O-GalNAc glycopeptide, sites not given here) [Peptide 893] | reactive with IgG from newly diagnosed cancer patients | – | –
TPTPKEKPEAGTYSVNNGND [Peptide 63, derived from LAMP2] | – | – | specifically reacting; also recorded: labels
SESFPHPGFNMSLLENHTRQ [Peptide 87, derived from KLK1] | – | – | specifically reacting; also recorded: labels
H2N-TDCGGPKDHPLTCDDPRFQA-amide (H-TDCGGPKDHPLTCDDPRFQA-NH2; cysteine pairing not given here; also: O-GalNAc glycopeptide, site not shown) [Peptide 585] | reactive with IgG from newly diagnosed cancer patients | – | –
TPTPKEKPEAGTYSVNNGND [Peptide 62, derived from LAMP2] | – | – | do not react; also recorded: not the corresponding peptide
SESFPHPGFNMSLLENHTRQ [Peptide 86, derived from KLK1] | – | – | do not react; also recorded: not the corresponding peptide
SHHSDESDELVTDFPTDLPA [Peptide 20, derived from SPP1] | – | – | do not react; also recorded: not the corresponding peptide
H2N-LAKMYYSAVEPTKDIFTGLI-amide (H-LAKMYYSAVEPTKDIFTGLI-NH2; also: O-GalNAc glycopeptide, sites not given here) [Peptide 275a] | reactive with IgG from newly diagnosed cancer patients | – | –
H2N-SLASQATDIFST[GlcNAc] VPPTPPSI-amide [Peptide 931-C3] | reactive with IgG from newly diagnosed cancer patients | exclusively recognized by IgG antibodies in sera from cancer patients | –
H2N-TKTDASSTHHSTVPPLTSSN-amide (H-TKTDASSTHHSTVPPLTSSN-NH2; also: O-GalNAc glycopeptide, sites not given here) [Peptide 873] | reactive with IgG from newly diagnosed cancer patients | – | –
SHHSDESDELVTDFPTDLPA [Peptide 21, derived from SPP1] | – | – | specifically reacting; also recorded: labels
H2N-PGTSTTPSQPNSAGVQDTEM-amide (H-PGTSTTPSQPNSAGVQDTEM-NH2; also: O-GalNAc glycopeptide, sites not given here) [Peptide 690] | reactive with IgG from newly diagnosed cancer patients | – | –
